Measured values as given in US9023817B2, “Use of albiflorin for anti-depression” (priority 2009, dated 2015).

Assays:
[1] = system: ICR mice; assay: Tail suspension test in mice, administration by gavage; format: in vivo; conditions: 3.5 mg/kg/d by gavage for two days; 1 h after administration; over 4 min
Description: In the second day, 1 h after the administration, the tail of mouse (2 cm away from the tip of the tail) was fixed to the connection line of 100 g tension transducer by adhesive plaster, and the mouse was hung upside down, with the head about 15 cm away from the experimental bench, two animals isolated from each other by a cardboard were simultaneously tested for each time. The transducer was connected to the Medlab bio-signals acquisition and processing system, after 2 min of adaption, the result over 4 min was recorded, and the immobility situation was converted into the time(s). The experimental data were expressed as X±SD, and the analysis of variance for the experimental results was carried out by SPSS 11.5 statistical software (purchased from SPSS Inc., USA).

[2] = system: ICR mice; assay: Tail suspension test in mice, intraperitoneal injection; format: in vivo; conditions: 7 mg/kg intraperitoneal injection, 1 day; 30 min after administration
Description: Normal mice were randomly divided into three groups (n=20 for each group) according to their weights, i.e. model group, high-dose group (14 mg/kg) and medium-dose group (7 mg/kg) of Albiflorin. Intraperitoneal injection group was subjected to the administration for 1 day. Each group was administered at a dose of 0.2 ml/10 g weight.
The test of intraperitoneal injection group was performed at 30 min after the administration. The tail of mouse 2 cm away from the tip of the tail) was fixed to the connection line of 100 g tension transducer with adhesive plaster, and the mouse was hung upside down, with the head about 15 cm away from the experimental bench, two animals isolated from each other by a cardboard were simultaneously tested for each time. The transducer was connected into the Medlab bio-signals acquisition and processing system, after 2 mins of adaption, the result over 4 mins was recorded, and the immobility situation was converted into the time(s).
The experimental data was expressed as X±SD, and the analysis of variance for the experimental results was carried out by SPSS 11.5 statistical software (purchased from SPSS Inc., USA).

[3] = system: noradrenalin in the brain of rat; assay: Noradrenalin in the brain of rat with chronic stress (HPLC-ECD, prefrontal cortex); format: in vivo, SD rats; conditions: 3.5 mg/kg/d gavage for 21 days
Description: After being fed without water for 24 hours, SD rats were administered with 1% aqueous sucrose, the consumption of aqueous sucrose was measured for 1 hour. The rats were randomly divided into six groups (n=12 for each group) according to the consumptions of aqueous sucrose, i.e. vehicle group, model group, positive control group of Fluoroxetine Hydrochloride (2.5 mg/kg/d), high-dose group (14 mg/kg/day), medium-dose group (7 mg/kg/day), and low-dose group (3.5 mg/kg/day) of Albiflorin. The gavage was carried out along with the model establishment, once a day, for 21 days. Each group was administered at a dose of 1.0 ml/100 g weight, and weighed once a week.
The rats were fed at 6/cage as vehicle group, with normal diets and drinking water, and without any stimulation.
The rats were fed at 1/cage as the other five groups, and subjected to unpredicted stress stimulations for 21 days, including: swimming in ice water, drying, tail nipping, wet feeding, reversed day and night, fasting, water deprivation and the like. One kind of stimulations was randomly given for each day.
The animal was executed by decapitation, the brain of it was quickly stripped on the ice, the prefrontal cortex was taken out, then placed into frozen tissue tube after weighting, rapidly frozen with liquid nitrogen, and placed into the refrigerator at −70° C. until test.

[4] = system: rats with chronic stress induced depression model; assay: Consumption of 1% aqueous sucrose, chronic stress induced depression; format: in vivo, SD rats; conditions: 1% aqueous sucrose for 1 hour
Description: The gavage was carried out along with the model establishment, once a day, for 21 days. […] Referring to the methods in the literature (Xu Jing, Li Xiaoqiu, Establishment and evaluation of the model of chronic stress induced depression, Chinese Journal of Behavioral Medical Science, 2003, 12(1): 14 16), the model was established (i.e., establishing animal model of anti-depression by means of CUMS): the foot electric shock (voltage: […] (5 minutes), drying at 45° C. […] All parameters to be tested were expressed as Mean±SD (X±s), and tested by means of analysis of variance (ANOVA) in SPSS 12.0 software (purchased from SPSS Inc., USA), p<0.05 means that there was a significant difference.

[5] = system: ICR mice; assay: Acute toxicity test of Albiflorin; format: in vivo
Description: SFP level ICR mice were administered with Albiflorin at a dose of 8.4 g/kg, the observation time was 14 days.
The nature and rate of breath, behaviors (especially whether there was any vomit-causing phenomenon), actions, color and tension of fur, abdominal shape, hardness of feces, body weight and the like were observed.

[6] = system: rats with chronic stress induced depression model; assay: Body weights of rats with chronic stress induced depression (CUMS); format: in vivo, SD rats
Description: The gavage was carried out along with the model establishment, once a day, for 21 days. […] Referring to the methods in the literature (Xu Jing, Li Xiaoqiu, Establishment and evaluation of the model of chronic stress induced depression, Chinese Journal of Behavioral Medical Science, 2003, 12(1): 14 16), the model was established (i.e., establishing animal model of anti-depression by means of CUMS): the foot electric shock (voltage: […] (5 minutes), drying at 45° C. (5 minutes), tail nipping (1 min), wet feeding (wet mat), reversed day and night (24 hours), fasting (24 hours), water deprivation (24 hours) were randomly scheduled within 21 days, one kind of stimulations was given for each day, except for the animals of vehicle group, the others were separately caged with free diet, at the room temperature of (24±1)° C., with the relative humidity of (60±10)%. All parameters to be tested were expressed as Mean±SD (X±s), and tested by means of analysis of variance (ANOVA) in SPSS 12.0 software (purchased from SPSS Inc., USA), p<0.05 means that there was a significant difference.

## C[C@]12C[C@@H](O)[C@@H]3C[C@@]1(O[C@@H]1O[C@H](CO)[C@@H](O)[C@H](O)[C@H]1O)[C@@]3(COC(=O)c1ccccc1)C(=O)O2 [Albiflorin]
[1]
  Immobility Time: 83.82 ± 35.099 s
[2]
  Immobility Time: 82.350 ± 52.5132 s
[3]
  NA: 174.59 ± 60.35
[4]; 3.5 mg/kg/day gavage, Day 0
  comsumption of aqeous sucrose: 12.75 ± 5.24 mL
[4]; 3.5 mg/kg/day gavage, Day 7
  comsumption of aqeous sucrose: 12.67 ± 5.42 mL
[4]; 3.5 mg/kg/day gavage, Day 14
  comsumption of aqeous sucrose: 11.83 ± 5.15 mL
[4]; 3.5 mg/kg/day gavage, Day 21
  comsumption of aqeous sucrose: 11.92 ± 3.96 mL
[4]; 7 mg/kg/day gavage, Day 0
  comsumption of aqeous sucrose: 12.67 ± 5.37 mL
[4]; 7 mg/kg/day gavage, Day 7
  comsumption of aqeous sucrose: 13.42 ± 5.37 mL
[4]; 14 mg/kg/day gavage, Day 0
  comsumption of aqeous sucrose: 12.50 ± 5.32 mL
[4]; 14 mg/kg/day gavage, Day 7
  comsumption of aqeous sucrose: 14.08 ± 3.65 mL
[4]; 14 mg/kg/day gavage, Day 14
  comsumption of aqeous sucrose: 13.00 ± 3.74 mL
[5]; 8.4 g/kg body weight, mice, by gavage
  safe dosage as multiple of the clinical dosage: approximately 600 times
[5]; 8.4 g/kg by gavage, Day 7 and Day 14
  body weight compared with the vehicle group: without significant difference
[5]; 8.4 g/kg by gavage, observation for 14 days
  abnormal symptoms and death: neither any abnormal symptom nor any death was found
[5]; mice, by gavage
  dosage at which still safe: 8.4 g/kg body weight
[6]; 3.5 mg/kg/day gavage, Day 0
  body weights: 256.83 ± 11.49 g
[6]; 3.5 mg/kg/day gavage, Day 7
  body weights: 265.65 ± 11.23 g
[6]; 3.5 mg/kg/day gavage, Day 14
  body weights: 270.75 ± 18.15 g
[6]; 3.5 mg/kg/day gavage, Day 21
  body weights: 271.07 ± 19.06 g
[6]; 7 mg/kg/day gavage, Day 0
  body weights: 250.18 ± 13.45 g
[6]; 7 mg/kg/day gavage, Day 7
  body weights: 265.65 ± 12.44 g
[6]; 14 mg/kg/day gavage, Day 0
  body weights: 255.84 ± 11.69 g
[6]; 14 mg/kg/day gavage, Day 7
  body weights: 268.11 ± 17.50 g
